The values below come from US8129527B2, “Analogs of dehydrophenylahistins and their therapeutic use” (Nereus Pharmacuticals, Inc., priority 2006, dated 2012).

Each structure is given as a SMILES string.

In data set [1] the test system is HL-60/MX2 multidrug resistant. As to the kind of experiment: Cell growth inhibition assay, resazurin (Example 11). Type of data set: cell-based, human. On the procedure:
(§1) Human uterine sarcoma (MES-SA; CRL-1976), its multidrug resistant derivative (MES-SA/Dx5; CRL-1977), human acute promyelocytic leukemia cells (HL-60; CCL-240) and its multidrug resistant derivative (HL-60/MX2; CRL-2257) were purchased from ATCC and maintained in appropriate culture media. The cells were cultured in an incubator at 37° C. in 5% CO2 and 95% humidified air.
(§2) For cell growth inhibition assays, MES-SA and MES-SA/Dx5 cells were both seeded at 3×10^3 cells/well in 90 μl complete media into 96 well (Corning; 3904) black-walled, clear-bottom tissue culture plates and the plates were incubated overnight to allow cells to establish and enter log phase growth. HL-60 and HL-60/MX2 cells were both seeded at 5×10^4 cells/well in 90 μl complete media into 96 well plates on the day of compound addition. 20 mM stock solutions of the compounds were prepared in 100% DMSO and stored at −80° C. […] Ten μl volumes of the 10× serial dilutions were added to the test wells in triplicate and the plates returned to the incubator for 48 hours. The final concentration of DMSO was 0.25% in all samples.
(§3) Following 48 hours of drug exposure, 10 μl of 0.2 mg/ml resazurin (obtained from Sigma-Aldrich Chemical Co.) in Mg^2+, Ca^2+ free phosphate buffered saline was added to each well and the plates were returned to the incubator for 3-6 hours. […] Resazurin dye in medium without cells was used to determine the background, which was subtracted from the data for all experimental wells.
(§4) HL-60/MX2 is a multidrug resistant tumor cell line derived from the human promyelocytic leukemia cell line, HL-60 and expresses reduced topoisomerase II activity. The data presented in Table 20 summarize the growth inhibitory effects of NPI-2421, NPI-2463, NPI-2503, NPI-2504 and NPI-2506 against HL-60 and its multidrug resistant derivative HL-60/MX2. Mitoxantrone, the topoisomerase II targeting agent was included as a control.
(The colour change of resazurin is a common sign of viable cells or microbes.)

Data set [2] deals with HuVECs. The data set is described as above. Type of data set: cell-based, human. How it is done:
The growth inhibitory activity of NPI-2421 and NPI-2463 were determined against human umbilical […] endothelial cells, HuVECs.
HuVECs (Cambrex Biosciences; CC2519A) were maintained in EGM-2 medium at 37° C. in 5% CO2 and 95% humidified air.
For cell growth inhibition assays, HuVECs were seeded at 1×10^3 cells/well in 90 μl complete media into a Corning 3904 black-walled, clear-bottom tissue culture plates and the plates were incubated overnight to allow cells to establish and enter log phase growth. 20 mM stock solutions of compounds were prepared in 100% DMSO and stored at −80° C. […] Ten μl volumes of the 10× serial dilutions were added to the test wells in triplicate and the plates returned to the incubator for 48 hours. The final concentration of DMSO was 0.25% in all samples.
as §3

For data set [3], the system named is MES-SA/Dx5 multidrug resistant. Described as above. Type of data set: cell-based, human. Particulars: for EC50: Homo sapiens, MES-SA/Dx5, mean ± standard deviation of three independent experiments; for Fold change: ratio of EC50 values (MES-SA/Dx5:MES-SA). How it is done:
as §1, §2, §3
(§5) The multidrug resistant MES-SA/Dx5 tumor cell line was derived from the human uterine sarcoma MES-SA tumor cell line and expresses elevated P-Glycoprotein (P-gp), an ATP dependent efflux pump. The data in Table 19 summarize the growth inhibitory effects of NPI-2421, NPI-2463, NPI-2503, NPI-2504 and NPI-2506 against MES-SA and its multidrug resistant derivative MES-SA/Dx5. Paclitaxel, a known substrate of the P-gp pump was included as a control.

Data set [4] concerns HT-29 colorectal adenocarcinoma. The description is as above. Type of data set: cell-based. The settings on record: Homo sapiens, 48 hours, mean ± SD where n ≧ 3. On the procedure:
(§6) The growth inhibitory activity of NPI-2421, NPI-2463, NPI-2503 and NPI-2504 were determined against selected human (colorectal adenocarcinoma, HT-29; breast adenocarcinoma, MDA-MB-231; non-small cell lung carcinoma, NCI-H292 and prostate carcinomas, PC-3 and DU 145) and mouse (melanoma, B16-F10) tumor cell lines.
(§7) HT-29 (HTB-38), MDA-MB-231 (HTB-26), NCI-H292 (CRL-1848), B16-F10 (CRL-6475), PC-3 (CRL-1435) and DU 145 (HTB-81) cells were all purchased from the ATCC. The cell lines were maintained in their respective ATCC recommended culture media and cultured in an incubator at 37° C. in 5% CO2 and 95% humidified air.
(§8) 20 mM stock solutions of compounds were prepared in 100% DMSO and stored at −80° C. 10× concentrated serial dilutions of the compounds were prepared in B16-F10 cell culture medium for final concentrations ranging from 20 μM to […]. Ten μl volumes of the 10× serial dilutions were added to the test wells in triplicate and the plates returned to the incubator for 48 hours. The final concentration of DMSO was 0.25% in all samples.
as §3

Data set [5] deals with MDA-MB-231 breast adenocarcinoma. The description is as above. Type of data set: cell-based. The settings on record: Homo sapiens, 48 hours, mean ± SD where n ≧ 3. On the procedure: as §6, §7, §8, §3
Data set [6] relates to DU 145 prostate carcinoma. Described as above. It is filed as cell-based. Particulars: Homo sapiens, 48 hours. On the procedure: as §6, §7, §8, §3
Data set [7] concerns NCI-H292 non-small cell lung carcinoma. Described as above. Type of data set: cell-based. Particulars: Homo sapiens, 48 hours, mean ± SD where n ≧ 3, ** n = 1. How it is done: as §6, §7, §8, §3
In data set [8] the test system is PC-3 prostate carcinoma. The description is as above. It is filed as cell-based. The settings on record: Homo sapiens, 48 hours, mean ± SD where n ≧ 3, ** n = 1. How it is done: as §6, §7, §8, §3
For data set [9], the system named is B16-F10 melanoma. The description is as above. Type of data set: cell-based. Particulars: Mus musculus, 48 hours, mean ± SD where n ≧ 3. How it is done: as §6, §7, §8, §3
The test system of data set [10] is HL-60 human acute promyelocytic leukemia cells. Described as above. Type of data set: cell-based. Particulars: mean values of two independent experiments. On the procedure: as §1, §2, §3, §4
Data set [11] concerns MES-SA human uterine sarcoma. Described as above. It is filed as cell-based. The settings on record: mean ± standard deviation of three independent experiments. How it is done:
as §1, §2, §3, §5

Data set [12] concerns HT-29 cells. The experiment in a line: Additional cytotoxicity assays, resazurin (Table 3.1). It is filed as cell-based, human. Particulars: Table 3.1. The method in brief:
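Cells exposed 48 hours to compounds at final concentrations 2.0×10^−5 M to 2.0×10^−10 M, in triplicate. Viability then read as resazurin fluorescence after 3-4 hours with dye; cell-free dye background subtracted.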

In data set [13] the test system is MDA-231 human breast tumor. The experiment in a line: MDA-231 Human Breast Tumor Orthotopic Xenograft Model (mammary fat pad). Type of data set: in vivo, nude mice. The settings on record: Breast MDA-231 (1 study); Paclitaxel qdx5 alone. How it is done: (§9) The animals used were: female nude mice (nu/ni) (MDA-231 study) or B6D2F1 (B16-F10 studies) mice between 5 and 6 weeks of age (˜20 g, Harlan); group size was 10 mice per group unless otherwise indicated.
(§10) The cell lines used were: MDA-MB-231 human breast tumor and B16-F10 murine melanoma cells.
(§11) NPI compounds were administered as monotherapy via the intraperitoneal route at the doses indicated for the individual study; for the combination studies the selected reference chemotherapy agents were injected 15-30 min prior to the NPI compound.
Female nude mice were injected in the mammary fat pad with 2×10^6 MDA-231 cells harvested from in vitro cell culture. When the tumor size reached 5 mm×5 mm (about 14-28 days) the animals were matched into treatment and control groups. The study then proceeded as described for the HT-29 model, using paclitaxel as the standard chemotherapy agent.
In this model unless otherwise noted for the individual study, the test compounds were administered via the intraperitoneal route on Days 1, 4, 8, 11 and 15 (q3dx5); paclitaxel was administered via the intraperitoneal route on Days 1-5 (qdx5).
This model involves the placement of the human tumor tissue into the mouse mammary fat pad, a surrogate of the natural environment. In this manner the possibility of a positive effect due to a specific action on the subcutaneous vascular bed is avoided.
In general terms: Xenograft models place foreign cells or tissue in a host animal.

The subject of data set [14] is B16-F10 murine melanoma cells. As to the kind of experiment: B16-F10 Metastatic Murine Melanoma Model. Particulars: monotherapy, lung surface metastases day 16. It is filed as in vivo, B6D2F1 mice. How it is done:
as §9, §10, §11
Mice received B16-F10 cells (prepared from an in vitro cell culture of B16-F10 cells) by the iv route on Day 0. On Day 1 mice were randomized into treatment and control groups and treatment commenced. Mice were weighed twice weekly, starting on Day 1. All mice are sacrificed on Day 16, the lungs removed, weighed and the surface colonies counted. Results are expressed as mean colonies of treated mice/mean colonies of control mice (T/C)×100%). The metastasis growth inhibition (MGI) is this number subtracted from 100%. Paclitaxel was the standard chemotherapy agent used in this study.
In this model unless otherwise noted for the individual study, the test compounds were administered via the intraperitoneal route on Days 1-5 (qdx5); paclitaxel was administered intravenously on Days 1-5(qdx5).

Data set [15] concerns DU-145 human prostate tumor. As to the kind of experiment: DU-145 Human Prostate Tumor Xenograft Model. It is filed as in vivo, nude mice. The settings on record: taxotere alone.
Protocol: When the tumors reached 5 mm×5 mm (at about 13-17 days) the animals were matched into treatment and control groups.
In this model unless otherwise noted for the individual study, test compounds were administered via the intraperitoneal route on Days 1, 3, 5, 8 and 11 (q3dx5); taxotere was administered intravenously on Days 1, 3 and 5 (q2dx3).
Data set [16] has as its system MCF-7 human breast tumor. The experiment in a line: MCF-7 Human Breast Tumor Xenograft Model. It is filed as in vivo, nude mice. Particulars: Breast MCF-7 (2 studies); Taxotere Days 1, 3, 5 alone. How it is done:
(§12) Animals used were (exceptions are indicated for individual studies): female nude mice (nu/nu) between 5 and 6 weeks of age (˜20 g, Harlan); group size was 9-10 mice per group unless otherwise indicated.
(§13) Selected novel compounds were administered as monotherapy via the intraperitoneal (i.p.) route at the doses indicated for the individual study; for the combination studies the selected reference chemotherapy agents were injected 15-30 min prior to the compound.
(§14) Saline dilutions are used to achieve the injection concentrations used for the reference compounds.
Female nude mice (˜20 g) were implanted s.c. with 21-day release estrogen (0.25 mg) pellets 24 hours prior to the s.c. implantation with MCF-7 tumor fragments (harvested from s.c. tumors in nude mice hosts). The study then proceeded as described for the HT-29 model, using taxotere as the standard chemotherapy agent.
In this model unless otherwise noted for the individual study, the novel compounds were injected via the intraperitoneal route daily on Days 1-5, inclusive (qdx5); taxotere was administered intravenously on Days 1, 3 and 5 (qodx3).
The doses of the compounds were administered on Days 1, 2, 3, 4, and 7; Taxotere was administered on Days 1, 3 and 7.

For data set [17], the system named is A549 human non small cell lung tumor. The experiment in a line: A549 Human Lung Tumor Xenograft Model. It is filed as in vivo, nude mice. On the procedure:
as §12, §13, §14
Animals were implanted s.c. by trocar with fragments of A549 tumors harvested from s.c. growing tumors in nude mice hosts. When the tumor size reached 5 mm×5 mm (about 10-17 days) the animals were matched into treatment and control groups.

Setting [18] is: Lung A549 (1 study), Taxotere Days 1, 3, 5 alone.

What is called EC50 is the concentration needed to bring the measured effect to its halfway point. For orientation: TGI means how far tumour growth fell short of that in controls.

With `CC(C)(C)c1ocnc1/C=c1\[nH]c(=O)/c(=C/c2ccccc2)[nH]c1=O` [Compound 2421, tBu-delta-PLH-oxazole], the EC50 in data set [1] (Homo sapiens, HL60/MX2, HL-60/MX2, mean values of two independent experiments) is 14 nM; in data set [2] (Homo sapiens, HuVEC, 48 hours, mean values of two independent experiments), 12 nM; in data set [3], 17 ± 4 nM; in [4], 21 ± 9 nM; in data set [5], 20 ± 6 nM; in data set [6] it was 25 nM. Also, the EC50 in data set [7] was 41 nM; in [8], > 2000 nM; in data set [9], 19 nM; in data set [10], 23 nM; in data set [11], 12 ± 3 nM; in data set [12] (Homo sapiens, HT-29, read-out: EC50 (M) Mean), 2.22e-08 M. Moreover, in data set [1] (in words), the “cytotoxic activity against both HL-60 and HL-60/MX2” value is reported as “retained cytotoxic activity”. Moreover, the values for the Fold change in data set [1] (ratio of EC50 values (HL-60/MX2:HL-60)) and in data set [3] were 0.6 and 1.4, respectively. Moreover, in data set [2] (in words), the “cytotoxicity against HuVECs” value is listed as “cytotoxic against HuVECs”. Moreover, the “cytotoxic activity against both MES-SA and MES-SA/Dx5” value in [3] (in words) is “retained equivalent cytotoxic activity”. Besides, in data set [12], the “% cytotox Mean” value came out at 88%.

Consider `CC(=O)O[C@H]1C(=O)[C@@]2(C)[C@H]([C@H](OC(=O)c3ccccc3)[C@]3(O)C[C@H](OC(=O)[C@H](O)[C@@H](NC(=O)c4ccccc4)c4ccccc4)C(C)=C1C3(C)C)[C@]1(OC(C)=O)CO[C@@H]1C[C@@H]2O` [Paclitaxel, reference compound], for which, in data set [13], the “Tumor Growth Inhibition (%) Reference Agent” value amounted to 53% and the “Tumor Regression (#/total) Reference Agent” value is 1/10. Further, in [3], the midpoint of the response, the EC50, lay at 2000 ± 150 nM and the Fold change was determined as 417. In [3] (vs MES-SA), the “less active against the resistant MES-SA/Dx5 cells” value is given as ~400 times. The “MGI (metastasis growth inhibition)” value in data set [14] is given as 35.0%. Also, the EC50 in data set [11] amounted to 4.8 ± 2.1 nM.

As for `CC(=O)O[C@@]12CO[C@@H]1C[C@H](O)[C@@]1(C)C(=O)[C@H](O)C3=C(C)[C@@H](OC(=O)[C@H](O)[C@@H](NC(=O)OC(C)(C)C)c4ccccc4)C[C@@](O)([C@@H](OC(=O)c4ccccc4)[C@H]21)C3(C)C` [Taxotere, reference compound], the “TGI vs NCI criterion” value in data set [15] is recorded as “did not reach the NCI established criterion for a positive effect”. Besides, the entries for the “Tumor Regression (#/total) Reference Agent” value in [16] and in data set [17] (setting [18]) were 0/20 and 0/10, respectively. The “Tumor Growth Inhibition (%) Reference Agent” value in data set [17] (setting [18]) worked out at 26%. In addition, the inhibition of tumour growth (TGI) in data set [17] (taxotere alone) is given as 26.1%.
